Experimental data reported in paper PMC11984407, “A natural small molecule isoginkgetin alleviates hypercholesterolemia and atherosclerosis by targeting ACLY” (Theranostics, 2025).

Key:
[1] = tested on: primary mouse hepatocytes (PMH); experiment: Nile red staining of PMH from Acly flox/flox mice infected with Cre adenovirus; type: cell-based; conditions: 5 µM, 12 h
Description: For the Nile Red staining procedure, primary mouse hepatocytes were treated with IOSGK at varying concentrations for a period of 12 h. Subsequently, the cells were fixed with 4% paraformaldehyde (PFA) and stained with Nile Red ([…], Invitrogen, Carlsbad, CA, USA). The intracellular accumulation of lipids was visualized and quantified using a laser scanning confocal microscope (TCS SP8; Leica, Wetzlar, Germany). Male and female Acly^flox/flox mice were used to isolate PMH and infected with adenovirus vectors carrying either Cre or GFP for 24 h.

[2] = tested on: liver gene expression; experiment: RNA sequencing of Apoe-/- mouse liver; type: in vivo; conditions: heat map
Description: Total RNA was extracted, and cDNA libraries were generated to investigate differences in gene expression. The Illumina sequencing platform was employed for single-end sequencing of the libraries. HISAT2 software (version 2.0.5) was utilized to align the reads to the mouse reference genome in Ensembl. StringTie (version 1.3.3b) was employed to compute raw counts of genes. DESeq2 (version 1.20.0) software was used to normalize the count matrix. Gene sets were established based on each KEGG pathway term and the associated genes, with GSEA conducted using the Java GSEA platform (version 3.0). This analysis utilized the 'Signal2Noise' metric for ranking and adopted a permutation type specific to 'gene sets'. Gene sets displaying FDR values below 0.25 were deemed to hold statistical significance. The expression patterns of pivotal genes within the pathways enriched by GSEA were visually represented through heatmaps, generated by employing the "pheatmap" package within the R programming environment. The relevant data can be accessed via the Gene Expression Omnibus database, using the following accession number: GSE261858.

[3] = biological target: T1, ACLY (Mus musculus, UniProt Q91V92); experiment: Cellular thermal shift assay in AML12 cell lysates; type: binding; parameters: The AML12 cell lysates were separated into two portions; endogenous in cells; host or cells: AML12; conditions: 5 µM, 50 to 90 °C
T1 sequence (Q91V92 1-1091): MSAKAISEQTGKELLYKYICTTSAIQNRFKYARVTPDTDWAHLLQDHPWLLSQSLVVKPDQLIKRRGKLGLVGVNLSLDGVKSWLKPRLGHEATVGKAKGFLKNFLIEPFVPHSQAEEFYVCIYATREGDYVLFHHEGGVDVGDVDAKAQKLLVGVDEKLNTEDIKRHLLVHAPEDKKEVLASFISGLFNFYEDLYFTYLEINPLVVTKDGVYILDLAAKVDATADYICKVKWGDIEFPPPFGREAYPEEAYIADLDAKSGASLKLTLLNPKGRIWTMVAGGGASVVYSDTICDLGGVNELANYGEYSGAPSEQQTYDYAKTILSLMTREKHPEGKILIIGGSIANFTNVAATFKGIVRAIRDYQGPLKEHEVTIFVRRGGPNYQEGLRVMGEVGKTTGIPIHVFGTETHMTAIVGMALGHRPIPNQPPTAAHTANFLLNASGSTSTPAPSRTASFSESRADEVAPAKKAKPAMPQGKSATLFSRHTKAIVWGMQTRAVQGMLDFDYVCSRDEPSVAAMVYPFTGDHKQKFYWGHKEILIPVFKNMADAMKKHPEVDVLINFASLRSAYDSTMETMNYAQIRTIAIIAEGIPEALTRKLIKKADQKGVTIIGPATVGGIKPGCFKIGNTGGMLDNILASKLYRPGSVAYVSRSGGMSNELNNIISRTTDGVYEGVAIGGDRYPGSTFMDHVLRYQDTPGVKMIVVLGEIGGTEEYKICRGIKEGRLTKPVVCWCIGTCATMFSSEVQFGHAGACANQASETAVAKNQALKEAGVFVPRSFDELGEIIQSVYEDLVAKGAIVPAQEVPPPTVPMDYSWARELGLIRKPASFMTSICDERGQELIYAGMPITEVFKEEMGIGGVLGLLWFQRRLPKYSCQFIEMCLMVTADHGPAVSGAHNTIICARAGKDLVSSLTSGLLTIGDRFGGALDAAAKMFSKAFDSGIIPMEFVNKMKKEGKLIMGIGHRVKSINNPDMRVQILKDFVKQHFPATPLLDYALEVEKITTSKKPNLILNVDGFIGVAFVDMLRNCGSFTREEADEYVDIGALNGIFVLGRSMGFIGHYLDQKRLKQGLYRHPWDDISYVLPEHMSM
Description: The AML12 cell lysates were separated into two portions; one served as a control, while the other was exposed to 5 µM ISOGK for 1 h at room temperature. Subsequently, the lysates were individually heated at the specified temperatures (50 to 90 °C) for 5 min and allowed to cool at room temperature. Following this, the lysates underwent centrifugation at 12,000 rpm for 10 min at 4 °C, after which the supernatants were analyzed through Western blot.

[4] = Copper-induced LDL oxidation, agarose gel electrophoresis; conditions: varying concentrations, copper 5 μM
Description: Prior to oxidation, EDTA was removed from LDL solutions (YB-001; Yiyuan Biotechnologies, Guangzhou, China). Subsequently, LDL solutions at a concentration of 0.2 mg/mL were incubated with varying concentrations of ISOGK in PBS for one h at 37 °C. The oxidation process was initiated by combining both native LDL and LDL pretreated with ISOGK with copper sulfate (99.0% purity; Jinshanting New Chemical Reagent Factory, Shanghai, China) to achieve a final copper concentration of 5 μM in PBS. This mixture was then incubated at 37 °C. Agarose gel electrophoresis was performed utilizing 0.5% agarose gels prepared in a sodium barbital buffer, following the stipulated electrophoretic methodology. The procedure was carried out in a 0.075 M sodium barbital buffer at a constant voltage of 55 V for a duration of one h. The relative electrophoretic mobility (REM) was determined by calculating the ratio of the migration distance of oxidized LDL to that of native LDL.

Compound: COc1ccc(-c2cc(=O)c3c(O)cc(O)c(-c4cc(-c5cc(=O)c6c(O)cc(O)cc6o5)ccc4OC)c3o2)cc1 [ISOGK, Isoginkgetin]
- lipid deposition in PMH when ACLY abrogated or depleted (Nile red) [1]: did not further diminish lipid deposition
- expression of fatty acid and cholesterol biosynthesis genes Srebf1, Fasn, Acaca, Cyp51 [2]: significantly downregulated
- thermal stabilization of ACLY [3]: stabilized the ACLY protein
- antioxidant activity against copper-induced LDL oxidation (REM) [4]: no antioxidant activity
